Assay results as given in patent US12077557B2, “Puromycin-based probes and methods of use thereof” (The Regents of the University of California, priority 2018, dated 2024).

What was measured:
[1] = LC-MS study of reaction of probe with GSH and other substrates; settings: 25° C.; probe 0.3 mM, GSH 1.0 mM
Experimental: (§1) MilliQ water was used in all experiments unless otherwise stated. Reaction kinetics of the probes with species of interest and other substrates were investigated by LC-MS (Agilent Technology 6130, Quadrupole LC/MS) coupled with photodiode array for detection (X=275 nm). Confocal microscopy images were recorded on a Zeiss laser scanning microscope 710 with a 40× water-immersion objective lens using Zen 2009 software (Carl Zeiss).
(§2) Peroxymycin-1 and Ctrl-Peroxymycin-1 (0.3 mM), respectively, were dissolved in phosphate buffer (20 mM, pH 7.4)-methanol solution mixture (2:1, v/v) with 3 vol % DMSO and allowed to stand at room temperature. At predetermined time intervals, an aliquot of the solution mixture was taken for LC-MS analysis. Separation was achieved by gradient elution from 5-100% MeOH in water (constant 0.1 vol % formic acid) over 8 min, isocratic with 100% MeOH from 8 to 12 min and returned to initial conditions and equilibrated for 3 minutes. The LC chromatograms were recorded by monitoring absorption at 275 nm.

HeLa cells [2] = assay: Immunostaining and confocal fluorescence imaging of HeLa cells treated with puromycin-based probes; type: cell-based, human; settings: for change of immunofluorescence intensity with incubation time: basal analyte level; for change in fluorescence intensity with H2O2 pretreatment: H2O2 50 μM 2 h pretreatment; for change in immunofluorescence intensity with cysteine or GSH incubation: 1 μM compound and cysteine or GSH 100 μM, 4 h; for change in fluorescence intensity with paraquat co-incubation: 1 μM compound, paraquat 1 mM; for green immunofluorescence at 0.5 h: basal
A431 cells = assay: Immunostaining and confocal imaging of A431 cells with stimulation or inhibition of H2O2 or NO production; type: cell-based, human; settings: for change in fluorescence intensity with EGF stimulation: EGF 100 ng/mL 20, 40, 60 min, then 1 μM compound 4 h
Text: Human cervical epithelial carcinoma (HeLa), human epidermoid carcinoma (A-431) and human breast carcinoma (MDA-MB-231 and MDA-MB-468) were maintained in DMEM medium (high glucose) supplemented with GlutaMAX and 10 vol % FBS. Human breast carcinoma (MCF-7) was maintained in DMEM medium (high glucose) supplemented with GlutaMAX, 10 vol % FBS, 1 vol % non-essential amino acids and 1% sodium pyruvate. Human breast carcinoma (HS 578T) was maintained in DMEM medium (high glucose) supplemented with GlutaMAX, 10 vol % FBS, 1% sodium pyruvate and insulin (10 μg/mL). Human non-tumorigenic breast epithelial cells (MCF-10A) were maintained in DMEM/F12 (with L-glutamate, HEPES and phenol red) supplemented with 5 vol % horse serum, EGF (20 ng/mL), hydrocortisone ([…]), cholera toxin (100 ng/mL), insulin (10 μg/mL) and 1 vol % penicillin/streptomycin. Human normal breast epithelial cells (HS 578Bst) were maintained in ATCC Hybri-Care Medium (No. 46-X) supplemented with sodium bicarbonate ([…]), EGF (30 ng/mL) and 10 vol % FBS. All cells were incubated in 5% CO2 humidified air, and subcultured when 80% confluence was reached. For cell-imaging experiments, the cells were plated on 8-well Lab Tek borosilicate chambered coverglass slides (Nunc) or 24-well plates with 12 mm coverslips, and allowed to grow to ca. 60% confluency before performing the cell imaging experiments.
Cells were incubated with the compound (1 μM) for indicated time intervals. The cells were then washed three-times by PBS solution and fixed by 4% paraformaldehyde at room temperature for 10 min. The cells were washed by PBS solution and PBS solution with 0.1 vol %-Triton X-100, followed by incubation with α-puromycin antibody [3RH11] (Kerafast; 1:500, v/v) in PBS solution containing 10 vol % FBS and 0.1 vol % Triton X-100 at 37° C. for 30 min. Subsequently, the cells were washed by PBS solution and PBS solution with 0.1 vol %-Triton X-100, and stained by α-mouse secondary antibody-Alexa Fluor 488 (1:100, v/v) in PBS solution containing 10 vol % FBS and 0.1 vol % Triton X-100 at 37° C. for 30 min. The cells were then washed by PBS solution and stained by Hoechst 33342 at room temperature for 10 min. After that, the cells were washed three-times by PBS solution and imaged by confocal fluorescence microscopy.
EGF stimulation was carried out by pretreatment of A431 cells by EGF (100 ng/mL) for 20, 40 and 60 min, then washed by PBS and incubated with Peroxymycin-1 (1 μM) for 4 h.
For the study with L-NAME, A431 cells were pretreated with L-NAME (100 μM) for 25 min, then washed by PBS and incubated with EGF (100 ng/mL) for 40 min, followed by washing and incubation with Peroxymycin-1 (1 μM) for 4 h.
For the DPI experiment, the cells were pretreated with a mixture of DPI (5 μM) and EGF (100 ng/mL) for 40 min, followed by incubation with a mixture of DPI (5 μM) and Peroxymycin-1 (1 μM) for 4 h.
For the inhibition of H2O2 production by gp91 Tat peptide, the cells were pretreated with gp91 Tat peptide (100 μM) for 30 min, then incubated with a mixture of gp91 Tat peptide (100 μM) and Peroxymycin-1 (1 μM) for 4 h.
Confocal fluorescence cell imaging was performed with a Zeiss laser scanning microscope 710 with a 40× water-immersion objective lens using Zen 2009 software (Carl Zeiss). Hoechst 33342 was excited with a 405 nm diode laser, and emission was collected using a META detector between 450 and 500 nm. Alexa Fluor 488 was excited with 488 nm with an Ar laser, and emission was collected using a META detector between 500 and 625 nm. Alexa Fluor 647 was excited with a 633 nm HeNe laser, and emission was collected using a META detector between 638 and 647 nm. PBS solution was used as the imaging buffer for all the confocal experiments. Image analysis was performed using ImageJ. A region of interest (ROI) was created around a single cell, and cellular fluorescence intensity was measured. […]

HeLa cells [3] = assay: Confocal fluorescence imaging of HeLa cells treated with fluorescent H2O2 probe PF2; type: cell-based, human
Text: (§3) Human cervical epithelial carcinoma (HeLa), human epidermoid carcinoma (A-431) and human breast carcinoma (MDA-MB-231 and MDA-MB-468) were maintained in DMEM medium (high glucose) supplemented with GlutaMAX and 10 vol % FBS. Human breast carcinoma (MCF-7) was maintained in DMEM medium (high glucose) supplemented with GlutaMAX, 10 vol % FBS, 1 vol % non-essential amino acids and 1% sodium pyruvate. Human breast carcinoma (HS 578T) was maintained in DMEM medium (high glucose) supplemented with GlutaMAX, 10 vol % FBS, 1% sodium pyruvate and insulin (10 μg/mL). Human non-tumorigenic breast epithelial cells (MCF-10A) were maintained in DMEM/F12 (with L-glutamate, HEPES and phenol red) supplemented with 5 vol % horse serum, EGF (20 ng/mL), hydrocortisone (0.5 mg/mL), cholera toxin (100 ng/mL), insulin (10 μg/mL) and 1 vol % penicillin/streptomycin. […]
(§4) Confocal fluorescence cell imaging was performed with a Zeiss laser scanning microscope 710 with a 40× water-immersion objective lens using Zen 2009 software (Carl Zeiss). […] A region of interest (ROI) was created around a single cell, and cellular fluorescence intensity was measured. The reported cellular fluorescence intensity was determined by averaging the measured intensity of 5 different cells from at least 3 different images in triplicate experiments. […]

[4] = LC-MS study of reaction of probe with H2S and other substrates; settings: 25° C.; probe 0.3 mM, H2S 1 mM
Experimental: as §1, §2

[5] = test system: panel of related cancer and non-tumorigenic breast cell lines; assay: H2O2 profiling across a panel of cancer and non-tumorigenic breast cell lines; type: cell-based, human; settings: 1 μM, 4 h; MDA-MB-231, HS 578T, MDA-MB-468, MCF-7, MCF-10A, HS 578Bst
Text: as §3, with “μg/mL).” for “μg/mL). Human non-tumorigenic breast epithelial cells (MCF-10A) were maintained in DMEM/F12 (with L-glutamate, HEPES and phenol red) supplemented with 5 vol % horse serum, EGF (20 ng/mL), hydrocortisone (0.5 mg/mL), cholera toxin (100 ng/mL), insulin (10 μg/mL) and 1 vol % penicillin/streptomycin.”
Cells were incubated with the compound (1 μM) for indicated time intervals. […] After that, the cells were washed three-times by PBS solution and imaged by confocal fluorescence microscopy.
as §4

[6] = LC-MS study of reaction of probe with H2O2 and other ROS; settings: 25° C.; probe 0.3 mM, H2O2 0.1 mM
Experimental: as §1, §2
For the study of the reaction with H2O2, Peroxymycin-1 and Ctrl-Peroxymycin-1 (0.3 mm), respectively, were dissolved in phosphate buffer (20 mM, pH 7.4)-methanol solution mixture (2:1, v/v) with 3 vol % DMSO. H2O2 was then added to the solution mixture (final concentration=0.1 mM), and the reaction mixture was allowed to stand at room temperature. […]

[7] = Stability of probes in phosphate buffer-methanol mixture by LC-MS; type: physicochemical
Experimental: as §1, §2

[8] = H2S 100 μM 30 min, then 1 μM compound 4 h

COc1ccc(CC(NC(=O)OCCSSCCOC(C)=O)C(=O)NC2C(CO)OC(n3cnc4c(N(C)C)ncnc43)C2O)cc1 (stereo not shown) [GSH-Puro-1]
pseudo-first-order rate constant of the reaction with GSH [1]: 9.4e-05 s⁻¹ | relative fluorescence intensity compared to cells treated by puromycin (HeLa cells [2]; 1 μM, 4 h incubation): 69% | relative fluorescence intensity compared to cells treated by puromycin (HeLa cells [2]; 1 μM, 6 h incubation): 79% | change of immunofluorescence intensity with incubation time (HeLa cells [2]; 1 μM, HeLa cells): Time-dependent increase in immunofluorescence intensity | fluorescence with BSO pretreatment compared to no pretreatment (HeLa cells [2]; BSO 1 mM 3 h, then probe 2 h): significantly weaker fluorescence | immunofluorescence with GSH or lipoic acid pretreatment compared to no pretreatment (HeLa cells [2]; GSH 100 μM 24 h or lipoic acid 1.8 mM 24 h, then probe 2 h): stronger immunofluorescence

COc1ccc(CC(NC(=O)OCCc2ccc(B3OC(C)(C)C(C)(C)O3)cc2)C(=O)NC2C(CO)OC(n3cnc4c(N(C)C)ncnc43)C2O)cc1 (stereo not shown) [Ctrl-Peroxymycin-1]
change in fluorescence intensity with EGF stimulation (A431 cells): no observable differences in immunofluorescence | change in fluorescence intensity with H2O2 pretreatment (HeLa cells [2]; then 1 μM compound 4 h): lack of signal

COc1ccc2c(c1)Oc1cc(B3OC(C)(C)C(C)(C)O3)ccc1C21OC(=O)c2ccccc21 (stereo not shown) [PF2, Peroxyfluor-2]
cellular fluorescence (basal H2O2) (HeLa cells [3]; 10 μM for 0.5, 4 and 6 h, washed): negligible fluorescence | change in signal in response to Nox2 inhibition by gp91 Tat peptide (HeLa cells [3]; gp91 Tat peptide 100 μM 30 min, PF2 10 μM 4 h): failed to show statistically significant decreases in signal

COc1ccc(CC(NC(=O)OCc2ccc(N=[N+]=[N-])cc2)C(=O)NC2C(CO)OC(n3cnc4c(N(C)C)ncnc43)C2O)cc1 (stereo not shown) [H2S-Puro-1]
pseudo-first-order rate constant of the reaction with H2S [4]: 6.3e-05 s⁻¹ | change in immunofluorescence intensity with cysteine or GSH incubation (HeLa cells [2]): significant increase in immunofluorescence intensity | relative fluorescence intensity compared to cells treated by puromycin (HeLa cells [2]; 1 μM, 4 h incubation): around 5% | change of immunofluorescence intensity with incubation time (HeLa cells [2]; 1 μM, HeLa cells): time-dependent increase in green fluorescence intensity | immunofluorescence with H2S pretreatment relative to no pretreatment (HeLa cells [2]; [8]): 1.4 fold

COc1ccc(C[C@H](N)C(=O)N[C@H]2[C@@H](O)[C@H](n3cnc4c(N(C)C)ncnc43)O[C@@H]2CO)cc1 [puromycin]
change in fluorescence intensity with EGF stimulation (A431 cells): do not show any significant changes in fluorescence intensity | change in immunofluorescence intensity with cysteine or GSH incubation (HeLa cells [2]): negligible change in fluorescence intensity | change in fluorescence intensity with paraquat co-incubation (HeLa cells [2]): no significant changes in fluorescence | time of saturation of green fluorescence (HeLa cells [2]; 1 μM, HeLa cells): 1 h | green immunofluorescence at 0.5 h (HeLa cells [2]; 1 μM, HeLa cells): strong green fluorescence | change in fluorescence intensity with H2O2 pretreatment (HeLa cells [2]; then 1 μM compound 4 h): lack of observed changes in fluorescence intensity | change in immunofluorescence intensity by H2S pretreatment (HeLa cells [2]; [8]): No significant change in immunofluorescence intensity | change in immunofluorescence intensity with GSH, lipoic acid or BSO pretreatment (HeLa cells [2]; puromycin control): no significant change in immunofluorescence intensity

COc1ccc(CC(NC(=O)OCc2ccc(B3OC(C)(C)C(C)(C)O3)cc2)C(=O)NC2C(CO)OC(n3cnc4c(N(C)C)ncnc43)C2O)cc1 (stereo not shown) [Peroxymycin-1]
change in fluorescence intensity with EGF stimulation (A431 cells): statistically significant increase in fluorescence intensity | change in immunofluorescent signal with DPI incubation (A431 cells; EGF 100 ng/mL 40 min, DPI 5 μM, probe 1 μM 4 h): statistically significant decrease in immunofluorescent signal | effect of L-NAME on EGF-stimulated immunofluorescence (A431 cells; L-NAME 100 μM 25 min, EGF 100 ng/mL 40 min, probe 1 μM 4 h): does not block EGF-stimulated increases | immunofluorescence with gp91 Tat peptide compared to controls without inhibitor (A431 cells; gp91 Tat peptide 100 μM 30 min, probe 1 μM 4 h): markedly lower levels | order of fluorescence intensities normalized to puromycin-treated cells [5]: metastatic/invasive cancer cells>cancer cells>non-tumorigenic cells | pseudo-first-order rate constant of the reaction with H2O2 [6]: 0.001 s⁻¹ | stability in aqueous solution buffered to physiological pH ([7]; 0.3 mM probe, phosphate buffer (20 mM, pH 7.4)-methanol (2:1, v/v), 3 vol % DMSO, room temperature): good stability | puromycin generation in the absence of H2O2 ([7]; control experiment, LC-MS): negligible puromycin generation | change in fluorescence intensity with paraquat co-incubation (HeLa cells [2]): significant increases in fluorescence intensity | fluorescence intensity with H2O2 co-incubation relative to cells treated with probe only (HeLa cells [2]; 1 μM probe 4 h, H2O2 50 μM co-incubation for 2 h): 4.3 times | relative fluorescence intensity compared to cells treated by puromycin (HeLa cells [2]; 1 μM, 4 h incubation): 30.5% | green immunofluorescence at 0.5 h (HeLa cells [2]; 1 μM, HeLa cells): no significant green fluorescence | change of immunofluorescence intensity with incubation time (HeLa cells [2]; 1 μM, HeLa cells): increases in fluorescence intensity | change in fluorescence intensity with H2O2 pretreatment (HeLa cells [2]; then 1 μM compound 4 h): statistically significant increase in fluorescence intensity
